According to patent US11339171B2, “MDM2 inhibitors” (Gan & Lee Pharmaceuticals, priority 2017, dated 2022):
pIC50: −log10 of the molar value. Several values for one entry are separate records, joined by “and”; a condition that tells them apart may be missing. Identical values can stand only once. Like-named read-outs stand apart in the source and are kept apart here.

Tests used:
[1] = system: human osteosarcoma cell line SJSA-1; assay: Inhibition of proliferation of human osteosarcoma cell line SJSA-1 (DAPI staining, In Cell Analyzer); conditions: Homo sapiens, SJSA-1, 72 h, read-out: IC50 (nM), inhibitory activity on proliferation of human osteosarcoma cell line SJSA-1, SJSA-1, incubated 72 h
[2] = Pharmacokinetics in ICR mice after intravenous and intragastric administration; assay type: in vivo; conditions: for MRT last: read-out: MRT(0-t); for MRT inf: read-out: MRT(0-∞); for Vd: read-out: Vz
Method in brief: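 Male ICR mice aged 6-9 weeks are dosed after an overnight fast, intravenously at 2 mg/kg and orally by gavage at 5 mg/kg. Plasma drug is measured by LC-MS/MS over a 1-2000 ng/ml range.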

[3] = target: T1, MDM2 (Homo sapiens, UniProt Q00987); assay: Inhibition test of MDM2-P53 (GST-MDM2, Biotin-P53, Anti-GST-Tb, SA-XL665); assay type: binding
T1 construct: made in house
T1 sequence (Q00987 whole entry): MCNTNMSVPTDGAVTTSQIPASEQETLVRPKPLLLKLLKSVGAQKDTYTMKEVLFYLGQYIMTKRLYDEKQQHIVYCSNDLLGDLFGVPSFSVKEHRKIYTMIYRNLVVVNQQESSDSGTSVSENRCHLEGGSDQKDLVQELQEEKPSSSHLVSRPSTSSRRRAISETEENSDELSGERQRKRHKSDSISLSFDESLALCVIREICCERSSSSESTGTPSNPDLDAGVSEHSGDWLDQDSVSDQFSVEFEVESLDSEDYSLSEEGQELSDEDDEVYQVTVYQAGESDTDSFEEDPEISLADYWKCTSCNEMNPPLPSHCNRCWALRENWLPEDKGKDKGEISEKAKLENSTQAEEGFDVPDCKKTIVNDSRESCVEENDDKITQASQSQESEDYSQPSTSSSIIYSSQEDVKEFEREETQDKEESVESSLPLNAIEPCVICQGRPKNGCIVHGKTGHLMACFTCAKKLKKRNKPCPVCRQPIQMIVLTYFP
Method in brief: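 Compounds, serially diluted 5-fold (twelve concentrations), were shaken for 90 min at 25° C with a mix of GST-MDM2 (4 nM final), Biotin-P53, anti-GST-Tb and SA-XL665. Buffer: 1×PBS, 0.1% BSA, 5 mM DTT, 1 mM AEBSF; signal read on a microplate reader.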

[4] = ICR mice, IV 2 mg/kg, individual animal, 2 mg/kg
[5] = ICR mice, PO 5 mg/kg, individual animal, 5 mg/kg
[6] = male, ICR, mouse, plasma, iv, 2 mg/kg, ICR mice, IV 2 mg/kg, individual animal
[7] = male, ICR, mouse, plasma, iv, 2 mg/kg, ICR mice, IV 2 mg/kg, individual animal, read-out: AUC(0-t)
[8] = male, ICR, mouse, plasma, iv, 2 mg/kg, ICR mice, IV 2 mg/kg, individual animal, read-out: Cmax
[9] = male, ICR, mouse, plasma, iv, 2 mg/kg, ICR mice, IV 2 mg/kg, individual animal, read-out: t1/2 (converted)
[10] = male, ICR, mouse, plasma, iv, 2 mg/kg, ICR mice, IV 2 mg/kg, mean of 3 animals
[11] = male, ICR, mouse, plasma, iv, 2 mg/kg, ICR mice, IV 2 mg/kg, mean of 3 animals, read-out: AUC(0-t)
[12] = male, ICR, mouse, plasma, iv, 2 mg/kg, ICR mice, IV 2 mg/kg, mean of 3 animals, read-out: Cmax
[13] = male, ICR, mouse, plasma, iv, 2 mg/kg, ICR mice, IV 2 mg/kg, mean of 3 animals, read-out: Tmax
[14] = male, ICR, mouse, plasma, iv, 2 mg/kg, ICR mice, IV 2 mg/kg, mean of 3 animals, read-out: t1/2 (converted)
[15] = male, ICR, mouse, plasma, po, 5 mg/kg, ICR mice, PO 5 mg/kg, individual animal
[16] = male, ICR, mouse, plasma, po, 5 mg/kg, ICR mice, PO 5 mg/kg, individual animal, read-out: AUC(0-t)
[17] = male, ICR, mouse, plasma, po, 5 mg/kg, ICR mice, PO 5 mg/kg, individual animal, read-out: Cmax
[18] = male, ICR, mouse, plasma, po, 5 mg/kg, ICR mice, PO 5 mg/kg, individual animal, read-out: Tmax
[19] = male, ICR, mouse, plasma, po, 5 mg/kg, ICR mice, PO 5 mg/kg, individual animal, read-out: t1/2 (converted)
[20] = male, ICR, mouse, plasma, po, 5 mg/kg, ICR mice, PO 5 mg/kg, mean of 3 animals
[21] = male, ICR, mouse, plasma, po, 5 mg/kg, ICR mice, PO 5 mg/kg, mean of 3 animals, read-out: AUC(0-t)
[22] = male, ICR, mouse, plasma, po, 5 mg/kg, ICR mice, PO 5 mg/kg, mean of 3 animals, read-out: Cmax
[23] = male, ICR, mouse, plasma, po, 5 mg/kg, ICR mice, PO 5 mg/kg, mean of 3 animals, read-out: Tmax
[24] = male, ICR, mouse, plasma, po, 5 mg/kg, ICR mice, PO 5 mg/kg, mean of 3 animals, read-out: t1/2 (converted)
[25] = male, ICR, mouse, plasma, po, 5 mg/kg, oral intragastric administration 5 mg/kg, read-out: AUC0-t
[26] = male, ICR, mouse, plasma, po, 5 mg/kg, oral intragastric administration 5 mg/kg, read-out: half-life (converted)
[27] = male, ICR, mouse, plasma, oral intragastric administration 5 mg/kg, read-out: bioavailability
[28] = male, mouse, plasma, ICR mice, PO 5 mg/kg vs IV 2 mg/kg, from mean values, read-out: F* (bioavailability)

## COc1ncc(-c2nc3c(n2C(C)C)[C@@]2(C(=O)Nc4cc(Cl)ccc42)N(c2cc(Cl)ccc2F)C3=O)c(OC)n1 [Example S-44, (S)-6-chloro-5′-(5-chloro-2-fluorophenyl)-2′-(2,4-dimethoxypyrimidin-5-yl)-3′-isopropyl-3′H-spiro[dihydroindole-3,4′-pyrrolo[3,4-d]imidazole]-2,6′(5′H)-dione]
[1]
  IC50: 11.9 nM
[2]; [4]
  AUC(0-t): 2703.63 ng·h/mL and 2987.84 ng·h/mL
  AUC(0-∞): 3052.47 ng·h/mL and 3364.67 ng·h/mL
  CL: 10.92 mL/min/kg and 9.91 mL/min/kg
  Cmax: 826.58 ng/mL and 951.21 ng/mL
  MRT(0-t): 1.82 h
  MRT(0-∞): 2.61 h and 2.56 h
  Vz: 1.82 L/kg and 1.64 L/kg
  t1/2: 1.92 h and 1.91 h
[2]; [5]
  AUC(0-t): 5161.46 ng·h/mL and 6287.89 ng·h/mL
  AUC(0-∞): 5447.83 ng·h/mL and 6556.64 ng·h/mL
  Cmax: 1097.85 ng/mL and 1204.30 ng/mL
  MRT(0-t): 2.81 h and 3.08 h
  MRT(0-∞): 3.22 h and 3.38 h
  Tmax: 2.00 h
  t1/2: 1.77 h and 1.65 h
[2]; [6]
  AUC(0-inf): 2770 ng·h/mL
  clearance: 12.1 mL/min/kg
  MRT last: 1.71 h
  MRT inf: 2.35 h
  Vd: 1.86 L/kg
[2]; [7]
  AUC(0-t): 2510 ng·h/mL
[2]; [8]
  Cmax: 872 ng/mL
[2]; male, ICR, mouse, plasma, iv, 2 mg/kg, ICR mice, IV 2 mg/kg, individual animal, read-out: Tmax
  Tmax: 0.08 h
[2]; [9]
  half-life: 1.79 h
[2]; [10]
  AUC(0-inf): 3060 ng·h/mL
  clearance: 11 mL/min/kg
  MRT last: 1.77 h
  MRT inf: 2.51 h
  Vd: 1.77 L/kg
[2]; [11]
  AUC(0-t): 2730 ng·h/mL
[2]; [12]
  Cmax: 883 ng/mL
[2]; [13]
  Tmax: 0.083 h
[2]; [14]
  half-life: 1.87 h
[2]; [15]
  AUC(0-inf): 8960 ng·h/mL
  MRT last: 3.17 h
  MRT inf: 4.17 h
[2]; [16]
  AUC(0-t): 7900 ng·h/mL
[2]; [17]
  Cmax: 1360 ng/mL
[2]; [18]
  Tmax: 1 h
[2]; [19]
  half-life: 2.56 h
[2]; [20]
  AUC(0-inf): 6990 ng·h/mL
  MRT last: 3.02 h
  MRT inf: 3.59 h
[2]; [21]
  AUC(0-t): 6450 ng·h/mL
[2]; [22]
  Cmax: 1220 ng/mL
[2]; [23]
  Tmax: 1.33 h
[2]; [24]
  half-life: 2 h
[2]; [25]
  AUC(0-t): 6450 ng·h/mL
[2]; [26]
  half-life: 2 h
[2]; [27]
  bioavailability: 94.4%
[2]; [28]
  bioavailability: 94.4%
[3]
  pIC50: 8.93

## COc1ncc(-c2nc3c(n2C(C)C)[C@@]2(C(=O)Nc4cc(Cl)ccc42)N(c2cc(F)cc(Cl)c2)C3=O)c(OC)n1 [Example S-45, (S)-6-chloro-5′-(3-chloro-5-fluorophenyl)-2′-(2,4-dimethoxypyrimidin-5-yl)-3′-isopropyl-3′H-spiro[dihydroindole-3,4′-pyrrolo[3,4-d]imidazole]-2,6′(5′H)-dione]
[1]
  IC50: 6.2 nM
[2]; [4]
  AUC(0-t): 1865.23 ng·h/mL and 2072.07 ng·h/mL
  AUC(0-∞): 1895.22 ng·h/mL and 2103.04 ng·h/mL
  CL: 17.59 mL/min/kg and 15.85 mL/min/kg
  Cmax: 779.74 ng/mL and 882.75 ng/mL
  MRT(0-t): 1.36 h
  MRT(0-∞): 1.44 h
  Tmax: 0.08 h and 0.25 h
  Vz: 1.54 L/kg and 1.37 L/kg
  t1/2: 1.01 h and 1.00 h
[2]; [5]
  AUC(0-t): 5315.63 ng·h/mL and 4196.04 ng·h/mL
  AUC(0-∞): 5471.40 ng·h/mL and 4431.71 ng·h/mL
  Cmax: 1355.63 ng/mL and 1169.32 ng/mL
  MRT(0-t): 2.53 h
  MRT(0-∞): 2.75 h
  Tmax: 1.00 h
  t1/2: 1.54 h and 1.87 h
[2]; [6]
  AUC(0-inf): 1830 ng·h/mL
  clearance: 18.3 mL/min/kg
  MRT last: 1.34 h
  MRT inf: 1.45 h
  Vd: 1.65 L/kg
[2]; [7]
  AUC(0-t): 1790 ng·h/mL
[2]; [8]
  Cmax: 766 ng/mL
[2]; [9]
  half-life: 1.05 h
[2]; [10]
  AUC(0-inf): 1940 ng·h/mL
  clearance: 17.2 mL/min/kg
  MRT last: 1.35 h
  MRT inf: 1.45 h
  Vd: 1.52 L/kg
[2]; [11]
  AUC(0-t): 19100 ng·h/mL
[2]; [12]
  Cmax: 809 ng/mL
[2]; [13]
  Tmax: 0.139 h
[2]; [14]
  half-life: 1.02 h
[2]; [15]
  AUC(0-inf): 6350 ng·h/mL
  MRT last: 2.56 h
  MRT inf: 3.21 h
[2]; [16]
  AUC(0-t): 5860 ng·h/mL
[2]; [17]
  Cmax: 1590 ng/mL
[2]; [18]
  Tmax: 0.5 h
[2]; [19]
  half-life: 2.17 h
[2]; [20]
  AUC(0-inf): 5420 ng·h/mL
  MRT last: 2.55 h
  MRT inf: 2.99 h
[2]; [21]
  AUC(0-t): 5120 ng·h/mL
[2]; [22]
  Cmax: 1370 ng/mL
[2]; [23]
  Tmax: 0.83 h
[2]; [24]
  half-life: 1.86 h
[2]; [25]
  AUC(0-t): 5120 ng·h/mL
[2]; [26]
  half-life: 1.86 h
[2]; [27]
  bioavailability: 107%
[2]; [28]
  bioavailability: 107%
[3]
  pIC50: 8.76
